Data as given in patent publication US11104632B1, “Metabolically stable vanillin derivatives for the treatment of hypoxia” (King Abdulaziz University, priority 2020, dated 2021).

Assays:
Hb [1] = biological target: T1, Hb (Homo sapiens, UniProt P68871+P69905, E7V); test: Hb oxygen equilibrium study (P50 shift, Hemox Analyzer) on lysate of treated SS cells; format: cell-based; conditions: intact SS cells, read-out: increase in Hb oxygen affinity (ΔP50); for percent P50 decrease (increase in Hb oxygen affinity) at 2000 µM: 2 mM compound; for percent P50 decrease (increase in Hb oxygen affinity) at 5000 µM: 5 mM compound
T1 construct: Leftover blood samples from patients with homozygous SS were obtained and utilized; from tissue; host or cells: blood (red blood cells) of patients with homozygous SS
From the text: (§1) In vitro Hemoglobin Modification, Oxygen Equilibrium and Antisickling Studies Using Human homozygous Sickle cell (SS) Blood
(§2) Materials and General Procedure: Leftover blood samples from patients with homozygous SS were obtained and utilized, based on an approved IRB protocol at the Children's Hospital of Philadelphia, with informed consent.
(§3) Experimental Procedure: The MMA series of compounds (MMA-202, MMA-204, and MMA-405) and the positive control vanillin were studied for their abilities to inhibit hypoxia-induced RBC sickling (RBC morphology study), increase Hb oxygen, and/or modify Hb (adduct formation) as previously published.^31,33 Briefly, homozygous SS blood (hematocrit: 20%) suspensions were incubated under air in the absence or presence of 2 and/or 5 mM concentration of test compounds at 37° C. for 1 hr. Following, the suspensions were incubated under hypoxic condition (2.5% oxygen) at 37° C. for 2 hr. Aliquot samples were fixed with 2% glutaraldehyde solution without exposure to air, and then subjected to microscopic morphological analysis. The residual samples were washed in phosphate-buffered saline, and hemolyzed in hypotonic lysis buffer for the Hb oxygen equilibrium and Hb adduct experiments. […] Another aliquot from the lysate was also subjected to Hb adduct formation study using cation-exchange HPLC (Hitachi D-7000 Series, Hitachi Instruments, Inc., San Jose, Calif.) with a weak cation-exchange column (Poly CAT A: 30 mm×4.6 mm, Poly LC, Inc., Columbia, Md.). To determine the binding of the MMA compounds to either α- or β-globin chains, the hemolysates were subjected to reversed-phase (RP) HPLC on a Hitachi D-7000 HSM Series, using a Jupiter 5 μm C-4 50×4.6 mm column, (Phenomenex®, Torrence, Calif.) and a gradient from 20% to 60% acetonitrile in 0.3% trifluoroacetic acid in 15 minutes, with UV detection at 215 nm.

α- or β-globin chains = biological target: T2, α- or β-globin chains (Homo sapiens, UniProt P68871+P69905, E7V); test: Reversed-phase HPLC of hemolysates for binding to α- or β-globin chains; format: cell-based; conditions: reverse-phase HPLC; 2 mM and/or 5 mM; intact SS cells
T2 construct: Leftover blood samples from patients with homozygous SS were obtained and utilized; from tissue; host or cells: blood (red blood cells) of patients with homozygous SS
Method: as §3

intact SS cells = test: Antisickling study (RBC morphology) under hypoxia with homozygous SS blood; format: cell-based, human; conditions: SS blood hematocrit 20%, 2.5% oxygen, 37° C., 2 hr
Method: as §1, §2
as §3, with “Following,” for “Experimental Procedure: The MMA series of compounds (MMA-202, MMA-204, and MMA-405) and the positive control vanillin were studied for their abilities to inhibit hypoxia-induced RBC sickling (RBC morphology study), increase Hb oxygen, and/or modify Hb (adduct formation) as previously published.^31,33 Briefly, homozygous SS blood (hematocrit: 20%) suspensions were incubated under air in the absence or presence of 2 and/or 5 mM concentration of test compounds at 37° C. for 1 hr. Following,”

Hb [2] = biological target: T1, Hb; test: Hb adduct formation study by cation-exchange HPLC after incubation with intact SS cells; format: cell-based; conditions: 2 mM and/or 5 mM
Method: as §3, with “To determine the binding of the MMA compounds to either α- or β-globin chains, the hemolysates were subjected to reversed-phase (RP) HPLC on a Hitachi D-7000 HSM Series, using a Jupiter 5 μm C-4 50×4.6 mm column, (Phenomenex®, Torrence, Calif.) and a gradient from 20% to 60% acetonitrile in 0.3% trifluoroacetic acid in 15 minutes, with UV detection at 215 nm.” left out

Hb [3] = biological target: Hb (Homo sapiens, UniProt P68871+P69905); test: In vitro time-dependent Hb oxygen equilibrium study using normal whole blood; conditions: 2 mM; normal whole blood 30% hct; 37° C.; 1, 4 and 24 hr
[4] = in-vivo; aldehyde protected by L-cysteine; cited from earlier work

Structure (SMILES)	melting point	percent P50 decrease (increase in Hb oxygen affinity) at 2000 µM (Hb [1])	percent P50 decrease (increase in Hb oxygen affinity) at 5000 µM (Hb [1])	globin chain bound (α- or β-globin chains)	RBC sickling (intact SS cells; 1 mM compound)	RBC sickling (intact SS cells; 2 mM compound)	RBC sickling (intact SS cells; 5 mM compound)	Hb modification (adduct formation) (Hb [2])	time course of Hb oxygen affinity activity (% P50 shift) over 24 hr (Hb [3])	extension of Vanillin half-life [4]
COc1ccc(C(=O)C(N)=O)cc1 [MMA-203, 2-(4-methoxyphenyl)-2-oxoacetamide]	146 °C									
COC(=O)C(=O)c1ccc(OC)cc1 [MMA-201, methyl 2-(4-methoxyphenyl)-2-oxoacetate]	49 °C									
C=CC(=O)c1ccc(OC)cc1 [MMA-202, 1-(4-methoxyphenyl)prop-2-en-1-one]		13%	51%	bind to both the α-chain and β-chain	48%	28%	15%	significant Hb modification	sustained throughout the 24 hr experiment	
COc1cc(C=O)ccc1O [vanillin]		12%	27%			57%	36%			
COc1cc(C2NC(C(=O)O)CS2)ccc1O (centres unmarked) [thiazolidine complex of Vanillin]										2 fold
C=CC(=O)c1ccc(OC2CCCCO2)cc1 (centres unmarked) [MMA-205, 1-(4-((tetrahydro-2H-pyran-2-yl)oxy)phenyl)prop-2-en-1-one]		21%	39%	bind exclusively with the β-chain		46%	27%	significant Hb modification		
C#CC(=O)c1ccc(OC)cc1 [MMA-204, 1-(4-methoxyphenyl)prop-2-yn-1-one]		29%	62%	bind exclusively with the β-chain		57%	44%			
